Structures are written as SMILES.

The nature of data set [1]: rodent preclinical cognitive deficit models. It is filed as in vivo. The note with it: range of rodent preclinical cognitive deficit models.
Data set [2] is described as follows: repeat dose pharmacokinetics in humans. It is filed as in vivo, human. The note with it: once daily repeat dosing, all doses.
In data set [3] the test system is functional connectivity of brain networks (DMN, visual network). Description: resting state BOLD-fMRI functional connectivity. Format: in vivo, human. The note with it: post dose versus baseline. The method, then: This example describes the fMRI analysis performed in the context of the study in Example 3. Simultaneous with the dynamic PET described in example 3 above, MRI data were acquired using a resting state BOLD-fMRI (rs-fMRI) protocol. In the following section, the methodology and results of the analysis of these MRI data are presented.
Resting state BOLD-fMRI data were acquired according to the following protocol: For the analysis of the rs-fMRI scans, all data were converted to the BIDS format for processing with the CONN toolbox (release 19c).
The following preprocessing steps were performed: • Slice timing correction: Temporal misalignment between different slices of the rs-fMRI scans, due to the sequential nature of the fMRI acquisition, is corrected by applying an appropriate timeshift to match the actual acquisition time • Realignment: RS-fMRI data were realigned where all scans were coregistered to the first scan of the first session. This way, potential susceptibility distortion-by-motion interactions were also addressed by estimating the derivatives of the deformation field with respect to head movement, and resampling the functional data to match the deformation field of the reference image. • Outlier detection: Potential outlier scans were identified from the observed global BOLD signal and the amount of subject-motion in the scanner. […]

Turning to `O=C1C[C@H](c2cc(F)c(F)c(F)c2)CN1Cn1ncnc1Cl` [compound of example 1, (4R)-1-[(5-chloro-1H-1,2,4-triazol-1-yl)methyl]-4-(3,4,5-trifluorophenyl)pyrrolidin-2-one], the pro-cognitive effects result in data set [1] is listed as “possesses pro-cognitive effects”. For the same molecule, the “time to reach steady state” value in data set [2] fell in the range of 8 to 10 days. Further, the “connectivity in the DMN (seed IC12)” value in data set [3] (low doses (all four individuals at 1 and 2 mg)) was “modulate and enhance connectivity in the DMN”. In addition, in data set [3] (relatively low occupancy levels), the “connectivity between IC18 (Visual network) and auditory network” value was “increased”.

For the origin of these results see patent US20240325353A1, “COMPOUND FOR TREATMENT OF COGNITIVE DISORDERS” (Syndesi Therapeutics SA, priority 2021, published 2024).
